Consider 10 compounds from patent publication US20260109707A1, “HETEROBIFUNCTIONAL COMPOUNDS AND METHODS OF TREATING DISEASE” (Halda Therapeutics OpCo. Inc., priority 2022, published 2026).

Assay [1] relates to VCaP cells. Nature of the assay: Cellular growth inhibition assay for VCaP cells (CellTiter-Glo, 72 hours). Conditions: Homo sapiens, VCaP, 72 h. Type of assay: cell-based, human. An outline of the steps: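 Luminescent viability signal after 72 h of compound exposure gave GI50 values by four-parameter nonlinear regression. Compounds were added in 0.5% DMSO to cells plated 24 h earlier at 5000/well in DMEM containing 10% FBS.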

Assay [2] in a line: Cellular growth inhibition assay, T-Rex 293 SC cells with doxycycline (CellTiter-Glo, 72 hours). Type of assay: cell-based. The following applies: T-Rex 293 SC cells with doxycycline (increased progesterone receptor isoform B). The protocol:
(§1) The following types of cells were prepared for this experiment: (i) a T-Rex 293 cell line having increased expression of progesterone receptor isoform B protein due to exposure to doxycycline and (ii) a T-Rex 293 cell line lacking increased expression of progesterone receptor isoform B protein. Ability of the test compounds to inhibit proliferation of the foregoing cell types was evaluated according to the procedures set forth below.
(§2) The doxycycline-inducible progesterone receptor isoform B protein expressing cell line was established using the following protocol: T-Rex 293 cells were purchased from Invitrogen (Cat #R71007) and transfected using Lipofectamine 2000 with the wild-type progesterone receptor B protein sequence cloned into the pcDNA4/TO vector. Transfected cells were selected using 400 μg/mL Zeocin (Invitrogen Cat #R25001). Following selection, single clones were raised and maintained in Dulbecco's Modified Eagle Medium (DMEM) supplemented with 10% w/w Tetracycline-free fetal bovine serum (FBS) and 250 μg/mL Zeocin. Clones were analyzed for expression of progesterone receptor isoform B protein in the presence and absence of 10 ng/mL doxycycline (Sigma Cat #D9891), and a single doxycycline-inducible clone (hereinafter “SC”) was selected for use in downstream assays.
(§3) The SC cells were seeded on poly-D-lysine coated, black clear-bottom 384-well plates at 2500/well, in 25 μL Phenol Red Free Dulbecco's Modified Eagle Medium (DMEM) supplemented with 10% w/w charcoal-dextran treated fetal bovine serum (FBS) and 1% w/w pen-strep, with or without 10 ng/mL doxycycline. Pen-Strep is a commercially available mixture of penicillin G and streptomycin, which is used in mammalian cell culture media to prevent bacterial contamination. Phenol Red Free Dulbecco's Modified Eagle Medium (DMEM) supplemented with 10% w/w charcoal-dextran treated fetal bovine serum (FBS) and 1% w/w pen-strep, with or without 10 ng/mL doxycycline is herein referred to as Treatment Medium. Following seeding of cells in the plates, the plates were spun at 300×g for 30 seconds, then equilibrated to room temperature for 30 minutes, and then deposited in a humidified tissue culture incubator maintained at 37° C. with 5% CO2.
(§4) At 24 hours after seeding of the cells, dilutions of test compound were prepared in DMSO and dissolved in Treatment Medium, to achieve a final DMSO concentration of 0.5% w/w, thereby providing the Test Compound Solution. A 25 μL aliquot of the Test Compound Solution was added to cells in the well plates. An equal volume of a solution containing DMSO and Treatment Medium was used as a negative control. Following treatment of cells with Test Compound Solution or said equal volume of a solution containing DMSO and Treatment Medium, the plates were spun at 300×g for 30 seconds, and then left in an incubator for 72 hours.
(§5) At the end of the treatment duration, cell viability was quantified with CellTiter-Glo 2.0 reagent (Promega Cat #G9243). For this purpose, plates were equilibrated to room temperature for 30 minutes, and then 25 μL of CellTiter-Glo 2.0 reagent was added to cells in the plate wells. Plates were then agitated on a shaker for two minutes at 500 rpm and subsequently incubated at room temperature for 10 minutes. Following incubation, the plates were spun at 3000×g for 30 seconds, then sealed with an optical adhesive cover, and luminescence readings were measured with an EnVision Plate Reader (Perkin Elmer).
(§6) Data was normalized using zero luminescence for baseline. A four-parameter non-linear regression curve fit was applied to dose-response data in GraphPad Prism data analysis software to determine the half-maximal growth inhibitory concentration (GI50) for each test compound.

In assay [3] the test system is T-Rex 293 cell line SC cells lacking increased expression of progesterone receptor isoform B protein. Nature of the assay: Cellular growth inhibition assay, T-Rex 293 SC cells without doxycycline (CellTiter-Glo, 72 hours). Conditions: T-Rex 293 SC cells not exposed to doxycycline. Type of assay: cell-based. The protocol: as §1, §2, §3, §4, §5, §6
In assay [4] the test system is T47D cells. Nature of the assay: Cellular growth inhibition assay for T47D cells (CellTiter-Glo, 72 hours). Type of assay: cell-based, human. The following applies: Homo sapiens, T47D, 72 h, 72 hours treatment. An outline of the steps: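 Growth inhibition as GI50, fitted with four parameters to CellTiter-Glo luminescence after 72 h of compound exposure (0.5% DMSO). Cells were T47D, grown in insulin-supplemented (0.2 units/mL) DMEM with 10% FBS and treated one day post-seeding.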

`Cc1sc2c(c1C)C(c1ccc(Cl)cc1)=N[C@@H](CC(=O)NCCOC1CCN(c3ccc(C(=O)N[C@H]4CC[C@H](Oc5ccc(C#N)c(Cl)c5)CC4)nn3)CC1)c1nnc(C)n1-2` [I-1, N-[4-(3-chloro-4-cyano-phenoxy)cyclohexyl]-6-[4-[2-[[2-[(9S)-7-(4-chlorophenyl)-4,5,13-trimethyl-3-thia-1,8,11,12-tetrazatricyclo[8.3.0.0^2,6]trideca-2(6),4,7,10,12-pentaen-9-yl]acetyl]amino]ethoxy]-1-piperidyl]pyridazine-3-carboxamide]: the GI50 in assay [1], in assay [2], in assay [3] and in assay [4] was less than 0.5 µM each time.

In the case of `Cc1sc2c(c1C)C(c1ccc(Cl)cc1)=N[C@@H](CC(=O)NCCOCCOCCOC1CCN(c3ccc(C(=O)N[C@H]4CC[C@H](Oc5ccc(C#N)c(Cl)c5)CC4)nn3)CC1)c1nnc(C)n1-2` [I-2, N-[4-(3-chloro-4-cyano-phenoxy)cyclohexyl]-6-[4-[2-[2-[2-[[2-[(9S)-7-(4-chlorophenyl)-4,5,13-trimethyl-3-thia-1,8,11,12-tetrazatricyclo[8.3.0.0^2,6]trideca-2(6),4,7,10,12-pentaen-9-yl]acetyl]amino]ethoxy]ethoxy]ethoxy]-1-piperidyl]pyridazine-3-carboxamide], the GI50 was less than 0.5 µM in assay [1], less than 0.5 µM in assay [2], more than 3 µM in assay [3] and 1.5 to 3 µM in assay [4].

For the compound `CCNC(=O)C[C@@H]1N=C(c2ccc(OCCOC3CCN(c4ccc(C(=O)N[C@H]5CC[C@H](Oc6ccc(C#N)c(Cl)c6)CC5)nn4)CC3)cc2)c2c(sc(C)c2C)-n2c(C)nnc21` [I-8], the GI50 in assay [1], in assay [2], in assay [3] and in assay [4] was less than 0.5 µM each time.

Consider `CCNC(=O)C[C@@H]1N=C(c2ccc(OCCOCCOC3CCN(c4ccc(C(=O)N[C@H]5CC[C@H](Oc6ccc(C#N)c(Cl)c6)CC5)nn4)CC3)cc2)c2c(sc(C)c2C)-n2c(C)nnc21` [I-10], for which the GI50 in assay [1], in assay [2], in assay [3] and in assay [4] was less than 0.5 µM each time.

With `CCNC(=O)C[C@@H]1N=C(c2ccc(CCCOC3CCN(c4ccc(C(=O)N[C@H]5CC[C@H](Oc6ccc(C#N)c(Cl)c6)CC5)nn4)CC3)cc2)c2c(sc(C)c2C)-n2c(C)nnc21` [I-17], the GI50 in assay [1] and in assay [4] was less than 0.5 µM in each case.

`CCNC(=O)C[C@@H]1N=C(c2ccc(CC3CCN(c4ccc(C(=O)N[C@H]5CC[C@H](Oc6ccc(C#N)c(Cl)c6)CC5)nn4)CC3)cc2)c2c(sc(C)c2C)-n2c(C)nnc21` [I-20]: the GI50 is less than 0.5 µM in assay [1], less than 0.5 µM in assay [2], 0.5 to 1.5 µM in assay [3] and 0.5 to 1.5 µM in assay [4].

Take `CCNC(=O)C[C@@H]1N=C(c2ccc(N3CC4(C3)CN(c3ccc(C(=O)N[C@H]5CC[C@H](Oc6ccc(C#N)c(Cl)c6)CC5)nn3)C4)cc2)c2c(sc(C)c2C)-n2c(C)nnc21` [I-24]: the GI50 in assay [1] was less than 0.5 µM; in assay [2], less than 0.5 µM; in assay [3], 0.5 to 1.5 µM; in assay [4], less than 0.5 µM.

As for `CCNC(=O)C[C@@H]1N=C(c2ccc(OCC3CN(c4ccc(C(=O)N[C@H]5CC[C@H](Oc6ccc(C#N)c(Cl)c6)CC5)nn4)C3)cc2)c2c(sc(C)c2C)-n2c(C)nnc21` [I-29], the GI50 in assay [1] and in assay [4] was less than 0.5 µM in each case.

For `CCNC(=O)C[C@@H]1N=C(c2ccc(N3CCC(OC4CCN(c5ccc(C(=O)N[C@H]6CC[C@H](Oc7ccc(C#N)c(Cl)c7)CC6)nn5)CC4)CC3)cc2)c2c(sc(C)c2C)-n2c(C)nnc21` [I-44], in assay [1], the GI50 was less than 0.5 µM.

As to `CCNC(=O)C[C@@H]1N=C(c2ccc(OCCCN(C)c3ccc(C(=O)N[C@H]4CC[C@H](Oc5ccc(C#N)c(Cl)c5)CC4)nn3)cc2)c2c(sc(C)c2C)-n2c(C)nnc21` [I-48], the GI50 in assay [1] is less than 0.5 µM; in assay [4] it was 0.5 to 1.5 µM.
